Experiments:
[1] = test system: Breast-fed infants with a diagnosis of infantile colic; assay: Selected probiotic strains versus Simethicone in the treatment of infantile colic (crying time, 28 days); assay type: in vivo, human; conditions: for Crying time (mean minutes per day): N = 30 per group
Text: Breast-fed infants with a diagnosis of infantile colic are recruited in the Department of Pediatric and Adolescence Science (Drottning Silvias University Hospital, Goteborg). Patients aged 21-90 days, adequate for gestational age with a birth weight between 2500 and 4000 g, with colic symptoms satisfying the Wessel's criteria, and arisen almost 6±1 days before the enrollment, are considered for inclusion in the study (Wessel M A, Cobb J C, Jackson E B, Harris G S, Detwiler A C. Paroxismal fussing in infancy, sometimes called “colic”. Pediatrics 1954; 14: 421-35). All infants enrolled are exclusively breast-fed in order to reduce variability in the intestinal microflora due to variations in the diet, which may in turn have influenced the response to the probiotic. Infants are excluded if they had clinical evidence of chronic illness or gastrointestinal disorders or if they had received either antibiotics or probiotics in the week preceding recruitment.
In this study, colicky infants are randomized to receive the probiotic or Simethicone in the following treatments:
L. reuteri is administered at a dose of 10^8 colony forming units (CFU) in 5 drops of a commercially available MCT-oil (medium chain tri-glyceride oil) suspension 30 min after feeding, once a day for 28 days. MCT oils occur naturally, and the most abundant source is coconut oil. Most MCT oil is refined from coconut oil. MCT oil is a clear light colored liquid with no flavor and low viscosity. This oil suspension is stable for 21 months at 2-8° C. (as documented by the manufacturer, BioGaia AB, Stockholm, Sweden) (alternative source of MCT oil is Akomed R, by Karlshamns AB, Karlshamn, Sweden). During the study, parents are instructed to keep the product in the refrigerator when not in use. Simethicone (S) was given at a dose of 60 mg/day in 3 mL of a commercially available solution (Mylicon Infants Gas Relief Drops, J&J, 7050 Camp Hill Rd., Fort Washington, Pa., 19034-2210, USA) after feeding, twice a day for 28 days. At the enrollment, all mothers are asked to follow a cows' milk-free diet as reported: avoidance of milk, yogurt, fresh and strong cheese, cream, butter, biscuits. Adherence to the diet is monitored with a diet diary maintained for all the treatment period. At day 7, 14, 21 and 28 one of the researches examined the compliance to this diet.
The day on which the pediatrician saw the infant for the first time is defined as Day-1. On this occasion each infant underwent a medical examination and the parents were interviewed in order to obtain background data concerning type of delivery, birth weight and gestational age, family history of gastrointestinal disease and atopy. In particular, the last one is considered positive if the infants had one or more family members (mother, father and/or older sibling) with atopic eczema, allergic rhinitis or asthma. Moreover, any signs and symptoms of atopic disease during the study period were recorded. Parents were also invited to record data concerning daily average crying time and number of colic episodes on the day after the recruitment (Day 0). The doctor randomly assigned the child to any of the study groups. Administration of study products began on Day 1.
Parents are given written information about the study and are asked to record daily number of inconsolable crying episodes and their duration, stool consistency and frequency as well as any observed side effects (constipation, vomiting, cutaneous reactions, etc) starting from Day 0 up to Day 28, using a structured diary. In order to ensure that all the parents noted crying time in a uniform way and to ensure that the infants are given the medication correctly, one of the researchers is always available by phone to help parents.
Each patient is re-examined by the same pediatrician on Days 1, 7, 14, 21 and 28.

[2] = test system: colicky symptoms in breast-fed infants; conditions: within 7 days of treatment; cited from earlier work

dimethylpolysiloxane [Simethicone]
withdrawal because of any side effect related to the trial ([1]; 28 days treatment, 30 infants per group): No babies are withdrawn because of any side effect | Crying time (mean minutes per day) ([1]; Day 0 (before administration), colicky infants): 205 minutes per day | Crying time (mean minutes per day) ([1]; Day 1, colicky infants): 194 minutes per day | Crying time (mean minutes per day) ([1]; Day 7, colicky infants): 172 minutes per day | Crying time (mean minutes per day) ([1]; Day 14, colicky infants): 155 minutes per day | Crying time (mean minutes per day) ([1]; Day 21, colicky infants): 148 minutes per day | Crying time (mean minutes per day) ([1]; Day 28, colicky infants): 141 minutes per day | response rate to the treatment [2]: 7%

From patent publication US9340840B2, “Use of selected lactic acid bacteria for reducing infantile colic” (Biogaia AB, priority 2006, dated 2016)
